Experimental data from ChEMBL document CHEMBL1155039, “Synthetic antimicrobial peptidomimetics with therapeutic potential” (J Med Chem, 2008).
In brackets after ≈: the same amount, converted by molar mass. Several values for one entry are separate records, joined by “and”; a condition that tells them apart may be missing. Identical values can stand only once. Activity calls are given as the source filed them. The rule behind the calls is not given here.

Tests used:
Escherichia coli [1] = assay: Antibacterial activity against Escherichia coli ATCC 25922; type: functional
Staphylococcus aureus [2] = assay: Antibacterial activity against Staphylococcus aureus ATCC 25923; type: functional
Staphylococcus aureus [3] = assay: Antibacterial activity against methicillin-resistant Staphylococcus aureus ATCC 33591; type: functional
[4] = test system: Staphylococcus epidermidis; assay: Antibacterial activity against methicillin-resistant Staphylococcus epidermidis ATCC 27626; type: functional
Staphylococcus aureus [5] = assay: Antibacterial activity against glycopeptide intermediate-resistant Staphylococcus aureus CCUG 43316; type: functional
[6] = Toxicity in human erythrocytes assessed as hemolysis; type: cell-based, Erythrocyte
Pseudomonas aeruginosa = assay: Antibacterial activity against Pseudomonas aeruginosa ATCC 27853; type: functional
[7] = Toxicity in human erythrocytes assessed as hemolysis upto 1000 ug/mL; type: cell-based; conditions: erythrocyte
Escherichia coli [8] = assay: Antibacterial activity against Escherichia coli ATCC 25922 upto 150 ug/mL; type: functional, organism-based
[9] = Effect on permeability assessed as calcein release from 1-palmitoyl-2-oleoyl-sn-glycero-3-phosphoglycerol vesicle; type: physicochemical
Staphylococcus aureus [10] = assay: Antibacterial activity against Staphylococcus aureus ATCC 25923 at 8 times MIC after 30 mins; type: functional
Escherichia coli [11] = assay: Effect on outer membrane destabilization in Escherichia coli ML-35p at 128 ug/mL; type: functional, organism-based
Escherichia coli [12] = assay: Effect on inner membrane destabilization in Escherichia coli ML-35p at 256 ug/mL; type: functional, organism-based
Escherichia coli [13] = assay: Antibacterial activity against Escherichia coli ML-35p; type: functional
[14] = Stability assessed as half life in human plasma; type: ADME, cell-free
Plasma = assay: Stability assessed as degradation in human plasma upto 4 days; type: ADME, cell-free; conditions: 96 h

| SMILES | MIC (Escherichia coli [1]) | MIC (Staphylococcus aureus [2]) | MIC (Staphylococcus aureus [3]) | MIC [4] | MIC (Staphylococcus aureus [5]) | EC50 [6] | MIC (Pseudomonas aeruginosa) | Activity [7] | Activity (Escherichia coli [8]) | Activity [9] | CFU/ml (Staphylococcus aureus [10]) | Activity (Escherichia coli [11]) | Activity (Escherichia coli [12]) | MIC (Escherichia coli [13]) | half-life [14] | Activity (Plasma) |
| --- | --- | --- | --- | --- | --- | --- | --- | --- | --- | --- | --- | --- | --- | --- | --- | --- |
| CC(C)(C)c1cc(C(C)(C)C)c2[nH]c(C(C)(C)C)c(C[C@H](N)C(=O)N[C@@H](CCCNC(=N)N)C(=O)NCc3ccccc3)c2c1 | 16 µM (≈ 9.89 µg/mL) | 4 µM (≈ 2.47 µg/mL) | 4 µM (≈ 2.47 µg/mL) | 4 µM (≈ 2.47 µg/mL) | 8.1 µM (≈ 5 µg/mL) | 97 µM | 12 µM (≈ 7.41 µg/mL) |  |  |  |  |  |  |  |  |  |
| COC(=O)[C@H](CCCNC(=N)N)NC(=O)[C@@H](Cc1c(C(C)(C)C)[nH]c2c(C(C)(C)C)cc(C(C)(C)C)cc12)NC(=O)[C@@H](N)CCCNC(=N)N | 72 µM (≈ 50.3 µg/mL) | 7.2 µM (≈ 5.03 µg/mL) | 7.2 µM (≈ 5.03 µg/mL) | 3.6 µM (≈ 2.52 µg/mL) | 21 µM (≈ 14.7 µg/mL) |  | 57 µM (≈ 39.8 µg/mL) | Not Active |  |  |  |  |  |  |  |  |
| COC(=O)[C@H](CCCNC(=N)N)NC(=O)[C@H](N)Cc1c(C(C)(C)C)[nH]c2c(C(C)(C)C)cc(C(C)(C)C)cc12 |  | 28 µM (≈ 15.2 µg/mL) | 28 µM (≈ 15.2 µg/mL) | 14 µM (≈ 7.6 µg/mL) | 55 µM (≈ 29.9 µg/mL) | 503 µM | 92 µM (≈ 49.9 µg/mL) |  | inactive |  |  |  |  |  |  |  |
| COC(=O)[C@H](CCCNC(=N)N)NC(=O)[C@@H](N)Cc1c(C(C)(C)C)[nH]c2c(C(C)(C)C)cc(C(C)(C)C)cc12 | 55 µM (≈ 29.9 µg/mL) | 9.2 µM (≈ 4.99 µg/mL) | 9.2 µM (≈ 4.99 µg/mL) | 4.6 µM (≈ 2.5 µg/mL) | 14 µM (≈ 7.6 µg/mL) | 451 µM | 55 µM (≈ 29.9 µg/mL) |  |  |  |  |  |  |  |  |  |
| COC(=O)[C@H](CCCNC(=N)N)NC(=O)[C@H](Cc1c(C(C)(C)C)[nH]c2c(C(C)(C)C)cc(C(C)(C)C)cc12)NC(=O)[C@@H](N)CCCNC(=N)N | 29 µM (≈ 20.3 µg/mL) | 7.2 µM (≈ 5.03 µg/mL) | 3.6 µM (≈ 2.52 µg/mL) | 1 µg/mL and 1.4 µM | 11 µM (≈ 7.69 µg/mL) | 1010 µM | 21 µM (≈ 14.7 µg/mL) |  |  | Dose-dependent effect | 10000 | Active | Active | 32 µg/mL (≈ 45.8 µM) | 2 h | Stable |
| CC(C)(C)c1cc(C(C)(C)C)c2[nH]c(C(C)(C)C)c(C[C@H](NC(=O)[C@@H](N)CCCCN)C(=O)N[C@@H](CCCNC(=N)N)C(N)=O)c2c1 | 107 µM (≈ 70.2 µg/mL) | 23 µM (≈ 15.1 µg/mL) | 23 µM (≈ 15.1 µg/mL) | 3.8 µM (≈ 2.49 µg/mL) | 46 µM (≈ 30.2 µg/mL) |  | 76 µM (≈ 49.9 µg/mL) | Not Active |  |  |  |  |  |  |  |  |
| CC(C)(C)c1cc(C(C)(C)C)c2[nH]c(C(C)(C)C)c(C[C@H](NC(=O)[C@@H](N)CCCNC(=N)N)C(=O)N[C@@H](CCCNC(=N)N)C(N)=O)c2c1 | 88 µM (≈ 60.2 µg/mL) | 11 µM (≈ 7.52 µg/mL) | 11 µM (≈ 7.52 µg/mL) | 3.7 µM (≈ 2.53 µg/mL) | 22 µM (≈ 15 µg/mL) |  | 44 µM (≈ 30.1 µg/mL) | Not Active |  |  |  |  |  |  |  |  |
| CC(C)(C)c1cc(C(C)(C)C)c2[nH]c(C(C)(C)C)c(C[C@H](NC(=O)[C@@H](N)CCCNC(=N)N)C(=O)N[C@@H](CCCNC(=N)N)C(=O)NCc3ccccc3)c2c1 | 9.7 µM (≈ 7.51 µg/mL) | 3.2 µM (≈ 2.48 µg/mL) | 3.2 µM (≈ 2.48 µg/mL) | 1.3 µM (≈ 1.01 µg/mL) | 3.2 µM (≈ 2.48 µg/mL) | 116 µM | 6.5 µM (≈ 5.03 µg/mL) |  |  |  |  |  |  |  |  |  |
| CC(C)(C)c1cc(C(C)(C)C)c2[nH]c(C(C)(C)C)c(C[C@H](N)C(=O)N[C@@H](CCCNC(=N)N)C(N)=O)c2c1 |  | 28 µM (≈ 14.8 µg/mL) | 28 µM (≈ 14.8 µg/mL) | 14 µM (≈ 7.39 µg/mL) | 57 µM (≈ 30.1 µg/mL) | 578 µM | 57 µM (≈ 30.1 µg/mL) |  | inactive |  |  |  |  |  |  |  |
